Laboratory results from ChEMBL document CHEMBL3352642, “6-Acetonyldihydrochelerythrine Is a Potent Inducer of Apoptosis in HCT116 and SW620 Colon Cancer Cells” (J Nat Prod, 2014).
Active and inactive are the calls of the source. The rule behind the calls is not given here.

Columns and labels:
SW-620 [1] = experiment: Cytotoxicity against human SW620 cells assessed as cell death at 2 times IC50 after 72 hrs by LDH release assay relative to control; type: functional
HCT-116 [2] = experiment: (§1) Induction of cell death in human HCT116 cells at 2 times IC50 after 72 hrs by Guava ViaCount assay relative to control; type: functional
[3] = Cytotoxicity against human HCT116 cells after 72 hrs by MTS assay; type: functional, cell-based; conditions: HCT-116, 72 h
SW-620 [4] = experiment: Induction of cell death in human SW620 cells at IC50 after 72 hrs by Guava ViaCount assay relative to control; type: functional
HCT-116 [5] = experiment: (§2) Induction of cell death in human HCT116 cells at IC50 after 72 hrs by Guava ViaCount assay relative to control; type: functional
SW-620 [6] = experiment: Cytotoxicity against human SW620 cells after 72 hrs by MTS assay; type: functional, cell-based; conditions: SW-620, 72 h
SW-620 [7] = experiment: Induction of cell death in human SW620 cells at 2 times IC50 after 72 hrs by Guava ViaCount assay relative to control; type: functional
HCT-116 [8] = experiment: Induction of apoptosis in human HCT116 cells assessed as change in nuclear morphology at 2 times IC50 after 24 hrs by fluorescent microscopy relative to control; type: functional
HCT-116 [9] = experiment: (§3) Cytotoxicity against human HCT116 cells assessed as cell death at 2 times IC50 after 72 hrs by LDH release assay relative to control; type: functional
SW-620 [10] = experiment: Induction of apoptosis in human SW620 cells assessed as change in nuclear morphology at 2 times IC50 after 24 hrs by fluorescent microscopy relative to control; type: functional
SW-620 [11] = experiment: Cytotoxicity against human SW620 cells assessed as cell death at IC50 after 72 hrs by LDH release assay relative to control; type: functional
HCT-116 [12] = experiment: (§4) Cytotoxicity against human HCT116 cells assessed as cell death at IC50 after 72 hrs by LDH release assay relative to control; type: functional
HCT-116 [13] = experiment: Induction of apoptosis in human HCT116 cells assessed as reduction in Bcl-2 expression at 1 to 2 times IC50 after 72 hrs by immunoblot analysis relative to control; type: functional, cell-based
HCT-116 [14] = experiment: Induction of apoptosis in human HCT116 cells assessed as reduction in Akt expression at 1 to 2 times IC50 after 72 hrs by immunoblot analysis relative to control; type: functional, cell-based
[15] = as §1; type: functional, HCT-116
SW-620 [16] = experiment: Induction of apoptosis in human SW620 cells assessed as reduction in Bcl-2 expression at 1 to 2 times IC50 after 72 hrs by immunoblot analysis relative to control; type: functional, cell-based
HCT-116 [17] = experiment: Induction of apoptosis in human HCT116 cells assessed as change in nuclear morphology at IC50 after 24 hrs by fluorescent microscopy relative to control; type: functional
HCT-116 [18] = experiment: Induction of apoptosis in human HCT116 cells assessed as increase in PARP cleavage at 1 to 2 times IC50 after 72 hrs by immunoblot analysis relative to control; type: functional, cell-based
SW-620 [19] = experiment: Induction of apoptosis in human SW620 cells assessed as reduction in XIAP expression at 1 to 2 times IC50 after 72 hrs by immunoblot analysis relative to control; type: functional, cell-based
HCT-116 [20] = experiment: Induction of apoptosis in human HCT116 cells assessed as reduction in ERK5 expression at 1 to 2 times IC50 after 72 hrs by immunoblot analysis relative to control; type: functional, cell-based
[21] = as §2; type: functional, HCT-116
SW-620 [22] = experiment: Induction of apoptosis in human SW620 cells assessed as increase in PARP cleavage at 1 to 2 times IC50 after 72 hrs by immunoblot analysis relative to control; type: functional, cell-based
SW-620 [23] = experiment: Induction of apoptosis in human SW620 cells assessed as reduction in ERK5 expression at 1 to 2 times IC50 after 72 hrs by immunoblot analysis relative to control; type: functional, cell-based
HCT-116 [24] = experiment: Induction of apoptosis in human HCT116 cells assessed as reduction in Bcl-XL expression at 1 to 2 times IC50 after 72 hrs by immunoblot analysis relative to control; type: functional, cell-based
HCT-116 [25] = experiment: Induction of apoptosis in human HCT116 cells assessed as increase in p53 expression at 1 to 2 times IC50 after 72 hrs by immunoblot analysis relative to control; type: functional, cell-based
[26] = as §3; type: functional, HCT-116
HCT-116 [27] = experiment: Induction of apoptosis in human HCT116 cells assessed as reduction in XIAP expression at 1 to 2 times IC50 after 72 hrs by immunoblot analysis relative to control; type: functional, cell-based
SW-620 [28] = experiment: Induction of apoptosis in human SW620 cells assessed as reduction in Bcl-XL expression at 1 to 2 times IC50 after 72 hrs by immunoblot analysis relative to control; type: functional, cell-based
SW-620 [29] = experiment: Induction of apoptosis in human SW620 cells assessed as change in nuclear morphology at IC50 after 24 hrs by fluorescent microscopy relative to control; type: functional
[30] = as §4; type: functional, HCT-116
SW-620 [31] = experiment: Induction of apoptosis in human SW620 cells assessed as reduction in Akt expression at 1 to 2 times IC50 after 72 hrs by immunoblot analysis relative to control; type: functional, cell-based
SW-620 [32] = experiment: Induction of apoptosis in human SW620 cells assessed as increase in p53 expression at 1 to 2 times IC50 after 72 hrs by immunoblot analysis relative to control; type: functional, cell-based

SMILES: O=c1[nH]cc(F)c(=O)[nH]1 [FLUOROURACIL]
- fold change (FC) (SW-620 [1]): 1.9
- Activity (HCT-116 [2]): Active
- IC50 [3]: 0.5 µM
- Activity (SW-620 [4]): Active
- Activity (HCT-116 [5]): Active
- IC50 (SW-620 [6]): 5.3 µM
- Activity (SW-620 [7]): Active
- Activity (HCT-116 [8]): <10%
- Activity (HCT-116 [9]): Active
- Activity (SW-620 [10]): 13%
- fold change (FC) (SW-620 [11]): 1.1
- Activity (HCT-116 [12]): Active

SMILES: COc1ccc2c(c1OC)[C@H](CC(C)=O)N(C)c1c-2ccc2cc3c(cc12)OCO3
- Activity (HCT-116 [13]): Active
- Activity (HCT-116 [14]): Active
- fold change (FC) (SW-620 [1]): 1.1
- Activity [15]: 65%
- IC50 [3]: 2.4 µM
- Activity (SW-620 [4]): 34%
- Activity (SW-620 [16]): Active
- Activity (HCT-116 [17]): 19%
- Activity (HCT-116 [18]): Active
- Activity (SW-620 [19]): Active
- Activity (HCT-116 [20]): Active
- Activity [21]: 25%
- IC50 (SW-620 [6]): 3.8 µM
- Activity (SW-620 [22]): Active
- Activity (SW-620 [7]): 65%
- Activity (HCT-116 [8]): 22%
- Activity (SW-620 [23]): Active
- Activity (HCT-116 [24]): Active
- Activity (HCT-116 [25]): Active
- fold change (FC) [26]: 1.3
- Activity (HCT-116 [27]): Active
- Activity (SW-620 [10]): 27%
- Activity (SW-620 [28]): Active
- Activity (SW-620 [29]): 22%
- fold change (FC) [30]: 1.2
- Activity (SW-620 [31]): Active
- Activity (SW-620 [32]): Active
